# How the values were obtained:
# [1] = tested on: AAD-1 cotton; assay: Crop injury on AAD-1 cotton, field experiment at four locations; assay type: in vivo, Cotton (Gossypium spp.); conditions: epinastic foliage per plot, n = 16 plots
# Procedure: (§1) By “injury” it is meant the percentage of foliage that is epinastic (has leaf droop, leaf rolling, petiole curvature) as visually assessed by one skilled in the art. The reduced injury from 2,4-DB relative to 2,4-D is observable within minutes after application of these herbicides and continues to be observable for an extended time period thereafter, such as from 2 hrs after application to 30 days after application, including 3 hours after application to 19 days after application and further including 6 hours after application to 24 hours after application.
# (§2) To evaluate the tolerance of AAD-1-cotton plants to the effects of 2,4-DB and 2,4-D herbicide compounds, the herbicides Butyrac 200 (2,4-DB) and Weedar 64 (2,4-D) were applied individually by broadcast spraying over AAD-1-cotton plants in two field experiments.
# One experiment was conducted at four field locations near Greenville, Miss.; Brinson, Ga.; Memphis, Tenn.; and Fresno, Calif. The experimental design was four replications per site with treatment plots in randomized complete blocks. Each plot had AAD-1-cotton plants in two rows that were 20 feet in length. Cotton plants were targeted at two to four inches in height for single-application treatment. Treatments consisted of Butyrac 200 (2,4-DB) applied at 560, 840, 1120, 1680, and 2240 g ae/ha; and Weedar 64 (2,4-D) applied at 840 and 1120 g ae/ha. AAD-1-cotton plants were visually assessed for the percentage of foliage showing herbicide-related injury one day after application.
# [2] = tested on: AAD-12 cotton; assay: Crop injury over time on AAD-12 cotton, greenhouse experiment; assay type: in vivo, Cotton (Gossypium spp.); conditions: n = 4 plants
# Procedure: as §1
# To evaluate the tolerance of AAD-12-cotton plants to the effects of 2,4-DB and 2,4-D herbicide compounds, the herbicides DB Straight (2,4-DB) and Weedar 64 (2,4-D) were applied individually by spraying over AAD-12-cotton plants in one greenhouse experiment. The four treatments consisted of two application rates, 1120 and 2240 g ae/ha, for each of the two herbicides. The experimental design was four replications of single AAD-12-cotton plants per treatment. The plants were grown in pots. Treatments were not randomized. Plants were at the 3- to 4-leaf stage when sprayed. The sprayed AAD-12-cotton plants were visually assessed for the percentage of foliage showing herbicide-related injury on days-0, 1, 2, 4, and 12 after application.
# [3] = tested on: AMASS; assay: Weed control in AAD-1 cotton field plots; assay type: in vivo, All Amaranthus species excluding AMAPA; conditions: 1120 g ae/ha, 3 WAA (maximum control), n = 36 plots
# Procedure: (§3) An experiment to compare the efficacies of 2,4-DB and 2,4-D to control weeds in AAD-1 cotton was conducted at nine field sites located near Greenville, Miss. (3 locations); Chula, Ga.; Macon County, Ga.; Attapulgus, Ga.; Memphis, Tenn.; Newport, Ark.; and Fresno, Calif. The experimental design was four replications per site with treatment plots in randomized complete blocks. Each plot had AAD-1-cotton plants in two rows that were 20 feet in length. Weed and cotton plants were targeted at two to six inches in height for a single-application treatment. Treatments consisted of Butyrac 200 (2,4-DB) and Weedar 64 (2,4-D) applied to plots at 560, 840, and 1120 g ae/ha. Weed species were visually assessed once per week for three weeks after herbicide application for the percentage plants (0-100%, where 0 represents no activity or a control and 100% represents death of the target plant) killed or showing severe herbicide-related injury.
# (§4) For nearly all targeted species and for each week of measurement, greater levels of control were obtained with increasing application rates of 2,4-DB or 2,4-D, with the greatest control from 1120 g ae/ha. Therefore, based on efficacy, 1120 g ae/ha is the preferred application rate of the three rates tested to control weeds in AAD-1 cotton. At 1120 g ae/ha, control was classified as either ≦80%, >80%, or >90% of weed plants killed or seriously injured.
# [4] = tested on: AMARE; assay: Weed control in AAD-1 cotton field plots; assay type: in vivo; conditions: 1120 g ae/ha, 3 WAA (maximum control), n = 36 plots
# Procedure: as §3, §4
# [5] = tested on: CASOB; assay: Weed control in AAD-1 cotton field plots; assay type: in vivo; conditions: 1120 g ae/ha, 3 WAA (maximum control), n = 36 plots
# Procedure: as §3, §4
# [6] = tested on: IAQTA; assay: Weed control in AAD-1 cotton field plots; assay type: in vivo; conditions: 1120 g ae/ha, 2 WAA (maximum control), n = 36 plots
# Procedure: as §3, §4
# [7] = tested on: IPOHG; assay: Weed control in AAD-1 cotton field plots; assay type: in vivo; conditions: 1120 g ae/ha, 2 WAA (maximum control), n = 36 plots
# Procedure: as §3, §4
# [8] = tested on: SIDSP; assay: Weed control in AAD-1 cotton field plots; assay type: in vivo; conditions: 1120 g ae/ha, 3 WAA (maximum control), n = 36 plots
# Procedure: as §3, §4
# [9] = tested on: RCHSC; assay: Weed control in AAD-1 cotton field plots; assay type: in vivo; conditions: 1120 g ae/ha, 3 WAA (maximum control), n = 36 plots
# Procedure: as §3, §4
# [10] = tested on: IPOSS; assay: Weed control in AAD-1 cotton field plots; assay type: in vivo; conditions: 1120 g ae/ha, 3 WAA (maximum control), n = 36 plots
# Procedure: as §3, §4
# [11] = tested on: ACCOS; assay: Weed control in AAD-1 cotton field plots; assay type: in vivo; conditions: 1120 g ae/ha, 3 WAA (maximum control), n = 36 plots
# Procedure: as §3, §4
# [12] = tested on: SOLNI; assay: Weed control in AAD-1 cotton field plots; assay type: in vivo; conditions: 1120 g ae/ha, 3 WAA (maximum control), n = 36 plots
# Procedure: as §3, §4
# [13] = tested on: ACNHI; assay: Weed control in AAD-1 cotton field plots; assay type: in vivo; conditions: 1120 g ae/ha, 2 WAA (maximum control), n = 36 plots
# Procedure: as §3, §4
# [14] = tested on: SEBEX; assay: Weed control in AAD-1 cotton field plots; assay type: in vivo; conditions: 1120 g ae/ha, 3 WAA (maximum control), n = 36 plots
# Procedure: as §3, §4
# [15] = tested on: AAD-1 cotton; assay: Crop injury over time on AAD-1 cotton, field experiment near Tifton, Ga.; assay type: in vivo, Cotton (Gossypium spp.); conditions: n = 3 plots
# Procedure: as §1, §2
# Another experiment was conducted at one field location at the University of Georgia Ponder Farm, near Tifton, Ga. The experimental design was three replications with plots in randomized complete blocks. Each plot had AAD-1-cotton plants in one row that was 25 feet in length. Cotton plants were targeted at […] in height (6-leaf stage) for single-application treatment. Treatments consisted of Butyrac 200 (2,4-DB) applied at 280, 560, 1120, and 2240 g ae ha; and Weedar 64 (2,4-D) applied at 560 and 1120 g ae/ha. AAD-1-cotton plants were visually assessed for the percentage of foliage showing herbicide-related injury on days—0, 1, 2, 19, and 45 after application.
# [16] = tested on: AMAPA; assay: Weed control in AAD-1 cotton field plots; assay type: in vivo, Amaranthus palmeri; conditions: 1120 g ae/ha, 3 WAA (maximum control), n = 36 plots
# Procedure: as §3, §4
smiles,measurement,setting,value
"O=C(O)CCCOc1ccc(Cl)cc1Cl [2,4-DB, 4-(2,4-dichlorophenoxy) butyric acid]","Mean Injury 1 DAA, Injury (%)",[1]; 560 g ae/ha post-emergence,2.3%
same,"Mean Injury 1 DAA, Injury (%)",[1]; 840 g ae/ha post-emergence,4.1%
same,"Mean Injury 1 DAA, Injury (%)",[1]; 1120 g ae/ha post-emergence,2.8%
same,"Mean Injury 1 DAA, Injury (%)",[1]; 1680 g ae/ha post-emergence,4.5%
same,"Mean Injury 1 DAA, Injury (%)",[1]; 2240 g ae/ha post-emergence,6.3%
same,Mean Injury (%),"[2]; 1120 g ae/ha, 0 DAA",0.0 a %
same,Mean Injury (%),"[2]; 1120 g ae/ha, 1 DAA",1.8 ab %
same,Mean Injury (%),"[2]; 1120 g ae/ha, 2 DAA",0.0 a %
same,Mean Injury (%),"[2]; 1120 g ae/ha, 4 DAA",1.0 b %
same,Mean Injury (%),"[2]; 1120 g ae/ha, 12 DAA",1.0 a %
same,Mean Injury (%),"[2]; 2240 g ae/ha, 0 DAA",0.0 a %
same,Mean Injury (%),"[2]; 2240 g ae/ha, 1 DAA",0.0 b %
same,Mean Injury (%),"[2]; 2240 g ae/ha, 2 DAA",0.0 a %
same,Mean Injury (%),"[2]; 2240 g ae/ha, 4 DAA",0.5 b %
same,Mean Injury (%),"[2]; 2240 g ae/ha, 12 DAA",3.3 a %
same,Percentage Control of Target Weeds,[3],77%
same,Percentage Control of Target Weeds,[4],89%
same,Percentage Control of Target Weeds,[5],100%
same,Percentage Control of Target Weeds,[6],99%
same,Percentage Control of Target Weeds,[7],100%
same,Percentage Control of Target Weeds,[8],84%
same,Percentage Control of Target Weeds,[9],99%
same,Percentage Control of Target Weeds,[10],99%
same,Percentage Control of Target Weeds,[11],88%
same,Percentage Control of Target Weeds,[12],89%
same,Percentage Control of Target Weeds,[13],99%
same,Percentage Control of Target Weeds,[14],89%
same,Mean Injury (%),"[15]; 280 g ae/ha, 0 DAA",1.7 a %
same,Mean Injury (%),"[15]; 280 g ae/ha, 1 DAA",0.7 a %
same,Mean Injury (%),"[15]; 280 g ae/ha, 2 DAA",1.3 ab %
same,Mean Injury (%),"[15]; 280 g ae/ha, 19 DAA",0.0 a %
same,Mean Injury (%),"[15]; 280 g ae/ha, 45 DAA",0.0 a %
same,Mean Injury (%),"[15]; 560 g ae/ha, 0 DAA",2.7 a %
same,Mean Injury (%),"[15]; 560 g ae/ha, 1 DAA",0.0 a %
same,Mean Injury (%),"[15]; 560 g ae/ha, 2 DAA",0.7 a %
same,Mean Injury (%),"[15]; 560 g ae/ha, 19 DAA",0.7 a %
same,Mean Injury (%),"[15]; 560 g ae/ha, 45 DAA",0.0 a %
same,Mean Injury (%),"[15]; 1120 g ae/ha, 0 DAA",5.0 ab %
same,Mean Injury (%),"[15]; 1120 g ae/ha, 1 DAA",0.7 a %
same,Mean Injury (%),"[15]; 1120 g ae/ha, 2 DAA",1.3 ab %
same,Mean Injury (%),"[15]; 1120 g ae/ha, 19 DAA",0.0 a %
same,Mean Injury (%),"[15]; 1120 g ae/ha, 45 DAA",1.7 a %
same,Mean Injury (%),"[15]; 2240 g ae/ha, 0 DAA",9.3 b %
same,Mean Injury (%),"[15]; 2240 g ae/ha, 1 DAA",2.0 a %
same,Mean Injury (%),"[15]; 2240 g ae/ha, 2 DAA",3.3 abc %
same,Mean Injury (%),"[15]; 2240 g ae/ha, 19 DAA",0.7 a %
same,Mean Injury (%),"[15]; 2240 g ae/ha, 45 DAA",0.0 a %
same,Percentage Control of Target Weeds,[16],81%
"O=C(O)COc1ccc(Cl)cc1Cl [2,4-D]","Mean Injury 1 DAA, Injury (%)",[1]; 840 g ae/ha post-emergence,7.4%
same,"Mean Injury 1 DAA, Injury (%)",[1]; 1120 g ae/ha post-emergence,13.0%
same,Mean Injury (%),"[2]; 1120 g ae/ha, 0 DAA",0.5 a %
same,Mean Injury (%),"[2]; 1120 g ae/ha, 1 DAA",2.3 ab %
same,Mean Injury (%),"[2]; 1120 g ae/ha, 2 DAA",3.0 a %
same,Mean Injury (%),"[2]; 1120 g ae/ha, 4 DAA",3.0 b %
same,Mean Injury (%),"[2]; 1120 g ae/ha, 12 DAA",3.0 a %
same,Mean Injury (%),"[2]; 2240 g ae/ha, 0 DAA",1.3 a %
same,Mean Injury (%),"[2]; 2240 g ae/ha, 1 DAA",4.3 a %
same,Mean Injury (%),"[2]; 2240 g ae/ha, 2 DAA",3.8 a %
same,Mean Injury (%),"[2]; 2240 g ae/ha, 4 DAA",6.8 a %
same,Mean Injury (%),"[2]; 2240 g ae/ha, 12 DAA",3.0 a %
same,Percentage Control of Target Weeds,[3],92%
same,Percentage Control of Target Weeds,[4],93%
same,Percentage Control of Target Weeds,[5],98%
same,Percentage Control of Target Weeds,[6],99%
same,Percentage Control of Target Weeds,[7],100%
same,Percentage Control of Target Weeds,[8],89%
same,Percentage Control of Target Weeds,[9],97%
same,Percentage Control of Target Weeds,[10],99%
same,Percentage Control of Target Weeds,[11],90%
same,Percentage Control of Target Weeds,[12],93%
same,Percentage Control of Target Weeds,[13],99%
same,Percentage Control of Target Weeds,[14],88%
same,Mean Injury (%),"[15]; 560 g ae/ha, 0 DAA",6.7 ab %
same,Mean Injury (%),"[15]; 560 g ae/ha, 1 DAA",6.7 b %
same,Mean Injury (%),"[15]; 560 g ae/ha, 2 DAA",4.0 bc %
same,Mean Injury (%),"[15]; 560 g ae/ha, 19 DAA",1.7 a %
same,Mean Injury (%),"[15]; 560 g ae/ha, 45 DAA",3.3 a %
same,Mean Injury (%),"[15]; 1120 g ae/ha, 0 DAA",23.3 c %
same,Mean Injury (%),"[15]; 1120 g ae/ha, 1 DAA",14.0 c %
same,Mean Injury (%),"[15]; 1120 g ae/ha, 2 DAA",4.7 c %
same,Mean Injury (%),"[15]; 1120 g ae/ha, 19 DAA",5.0 b %
same,Mean Injury (%),"[15]; 1120 g ae/ha, 45 DAA",2.3 a %
same,Percentage Control of Target Weeds,[16],89%
